Literature values, collected in patent publication US6503506B1, “Nutrient therapy for immuno-compromised patients” (Millenium Biotechnologies, Inc., priority 2001, dated 2003).

Columns and labels:
mitochondrial DNA = details: patients on long-term therapy

COC1=C(OC)C(=O)C(C/C=C(\C)CC/C=C(\C)CC/C=C(\C)CC/C=C(\C)CC/C=C(\C)CC/C=C(\C)CC/C=C(\C)CC/C=C(\C)CC/C=C(\C)CCC=C(C)C)=C(C)C1=O [COQ10, Coenzyme Q10]
T4/T8 ratios of lymphocytes (HIV patients, oral administration): positive increase in T4/T8 rations
IgG and T4-lymphocytes (human studies, administered orally): increases IgG and T4-lymphocytes

Cc1cn([C@H]2C[C@H](N=[N+]=[N-])[C@@H](CO)O2)c(=O)[nH]c1=O [zidovudine (AZT), zidovudine]
levels of mitochondrial DNA in muscle (mitochondrial DNA): depletes levels of mitochondrial DNA in muscle

superoxide dismutase [SOD]
levels of the virus core protein (HIV; indicator of virus presence in the cells): reduced the levels of the virus core protein
spread of HIV through infected cells (HIV; infected white blood cells from patients with HIV): slowed down the spread of HIV through the infected cells
